# Test system: bacterial contamination of calcium carbonate-based slurry
# Details: THPS solution added to calcium carbonate-based slurry; in 2 hours
substance,measurement,value
tetrakis(hydroxymethyl)phosphonium sulphate [THPS],reduction in bacterial count,10^4

# — patent US20130225534A1, “METHODS FOR TREATING AN INORGANIC SLURRY” (Rhodia Operations, priority 2003, published 2013)
